One block for each compound: values may come before it.
Legend:
[1] = Stability in BALB/c mouse plasma assessed as parent compound remaining at 2 uM after 16 hrs in presence of NaF by LC-MS/MS analysis; assay type: ADME, cell-free; settings: read-out: Stability
[2] = Stability in BALB/c mouse plasma assessed as parent compound remaining at 2 uM after 16 hrs in absence of NaF by LC-MS/MS analysis; assay type: ADME, cell-free; settings: read-out: Stability
Homo sapiens = species on record: Homo sapiens; test: Selectivity ratio of IC50 for recombinant human N-terminal His6-tagged full length PI3K p110alpha/untagged recombinant full length human p85alpha to IC50 for recombinant human full length N-terminal His6-tagged PI3K p110delta/untagged recombinant full length human p85alpha expressed in baculovirus infected Sf21 insect cells
[3] = target: PI3-kinase p110-delta/p85-alpha (Homo sapiens, UniProt O00329); test: Inhibition of recombinant human full length N-terminal His6-tagged PI3K p110delta/untagged recombinant full length human p85alpha expressed in baculovirus infected Sf21 insect cells using PIP2 as substrate after 35 to 40 mins by HTRF assay
Sequence of PI3-kinase p110-delta/p85-alpha (P27986 whole entry): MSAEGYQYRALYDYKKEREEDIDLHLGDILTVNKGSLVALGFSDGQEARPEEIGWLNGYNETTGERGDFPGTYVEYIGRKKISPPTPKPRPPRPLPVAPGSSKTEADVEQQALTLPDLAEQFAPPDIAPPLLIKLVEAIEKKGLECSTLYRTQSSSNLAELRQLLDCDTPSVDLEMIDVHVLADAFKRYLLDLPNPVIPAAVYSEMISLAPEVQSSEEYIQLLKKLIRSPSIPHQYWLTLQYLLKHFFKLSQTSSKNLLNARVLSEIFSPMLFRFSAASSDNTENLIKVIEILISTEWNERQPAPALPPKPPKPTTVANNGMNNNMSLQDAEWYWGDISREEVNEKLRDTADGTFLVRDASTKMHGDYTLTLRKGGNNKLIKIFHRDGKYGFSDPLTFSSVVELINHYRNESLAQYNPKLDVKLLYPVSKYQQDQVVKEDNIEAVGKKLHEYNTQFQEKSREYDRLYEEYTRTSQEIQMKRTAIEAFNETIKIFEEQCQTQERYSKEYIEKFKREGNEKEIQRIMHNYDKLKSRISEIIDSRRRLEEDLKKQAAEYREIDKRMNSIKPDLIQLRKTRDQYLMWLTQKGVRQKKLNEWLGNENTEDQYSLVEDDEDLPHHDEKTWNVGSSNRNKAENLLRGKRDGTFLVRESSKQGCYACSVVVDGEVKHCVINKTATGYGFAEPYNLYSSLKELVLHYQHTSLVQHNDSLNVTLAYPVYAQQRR
Sequence of PI3-kinase p110-delta/p85-alpha (O00329 whole entry): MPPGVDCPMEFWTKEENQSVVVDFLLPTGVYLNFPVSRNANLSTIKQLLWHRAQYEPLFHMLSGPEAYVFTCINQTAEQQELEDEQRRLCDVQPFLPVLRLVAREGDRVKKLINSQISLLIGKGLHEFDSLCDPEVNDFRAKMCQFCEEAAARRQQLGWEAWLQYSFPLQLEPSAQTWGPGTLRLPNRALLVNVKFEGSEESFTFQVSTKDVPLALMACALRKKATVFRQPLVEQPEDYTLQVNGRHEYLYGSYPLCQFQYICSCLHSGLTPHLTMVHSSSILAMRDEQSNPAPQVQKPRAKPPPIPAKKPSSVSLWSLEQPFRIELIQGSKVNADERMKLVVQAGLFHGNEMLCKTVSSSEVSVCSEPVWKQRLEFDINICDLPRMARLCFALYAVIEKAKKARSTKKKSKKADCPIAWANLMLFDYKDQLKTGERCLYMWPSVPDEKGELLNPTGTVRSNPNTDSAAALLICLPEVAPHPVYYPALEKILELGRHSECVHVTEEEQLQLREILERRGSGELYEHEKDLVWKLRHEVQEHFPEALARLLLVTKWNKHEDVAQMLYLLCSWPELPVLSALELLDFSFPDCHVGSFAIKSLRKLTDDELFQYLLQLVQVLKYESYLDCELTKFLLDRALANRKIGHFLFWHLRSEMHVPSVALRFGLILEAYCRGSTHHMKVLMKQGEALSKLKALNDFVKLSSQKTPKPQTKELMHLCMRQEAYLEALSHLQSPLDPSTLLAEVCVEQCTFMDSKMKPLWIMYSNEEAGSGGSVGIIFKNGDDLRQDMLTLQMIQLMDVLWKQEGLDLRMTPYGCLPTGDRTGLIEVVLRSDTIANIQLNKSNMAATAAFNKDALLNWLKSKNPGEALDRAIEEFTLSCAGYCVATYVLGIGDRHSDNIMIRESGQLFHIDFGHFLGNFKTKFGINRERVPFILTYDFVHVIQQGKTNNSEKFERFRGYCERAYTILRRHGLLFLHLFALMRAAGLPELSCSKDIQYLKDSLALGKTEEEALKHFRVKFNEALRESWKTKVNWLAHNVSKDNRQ

PI3K p110 beta/p85 alpha = PI3K p110 beta/p85 alpha (Homo sapiens, UniProt P42338); test: Inhibition of recombinant human full length N-terminal His6-tagged PI3K p110beta/untagged recombinant full length human p85alpha expressed in baculovirus infected Sf21 insect cells using PIP2 as substrate after 35 to 40 mins by HTRF assay
Sequence of PI3K p110 beta/p85 alpha (P27986 whole entry): as the sequence (P27986 whole entry) above
Sequence of PI3K p110 beta/p85 alpha (P42338 whole entry): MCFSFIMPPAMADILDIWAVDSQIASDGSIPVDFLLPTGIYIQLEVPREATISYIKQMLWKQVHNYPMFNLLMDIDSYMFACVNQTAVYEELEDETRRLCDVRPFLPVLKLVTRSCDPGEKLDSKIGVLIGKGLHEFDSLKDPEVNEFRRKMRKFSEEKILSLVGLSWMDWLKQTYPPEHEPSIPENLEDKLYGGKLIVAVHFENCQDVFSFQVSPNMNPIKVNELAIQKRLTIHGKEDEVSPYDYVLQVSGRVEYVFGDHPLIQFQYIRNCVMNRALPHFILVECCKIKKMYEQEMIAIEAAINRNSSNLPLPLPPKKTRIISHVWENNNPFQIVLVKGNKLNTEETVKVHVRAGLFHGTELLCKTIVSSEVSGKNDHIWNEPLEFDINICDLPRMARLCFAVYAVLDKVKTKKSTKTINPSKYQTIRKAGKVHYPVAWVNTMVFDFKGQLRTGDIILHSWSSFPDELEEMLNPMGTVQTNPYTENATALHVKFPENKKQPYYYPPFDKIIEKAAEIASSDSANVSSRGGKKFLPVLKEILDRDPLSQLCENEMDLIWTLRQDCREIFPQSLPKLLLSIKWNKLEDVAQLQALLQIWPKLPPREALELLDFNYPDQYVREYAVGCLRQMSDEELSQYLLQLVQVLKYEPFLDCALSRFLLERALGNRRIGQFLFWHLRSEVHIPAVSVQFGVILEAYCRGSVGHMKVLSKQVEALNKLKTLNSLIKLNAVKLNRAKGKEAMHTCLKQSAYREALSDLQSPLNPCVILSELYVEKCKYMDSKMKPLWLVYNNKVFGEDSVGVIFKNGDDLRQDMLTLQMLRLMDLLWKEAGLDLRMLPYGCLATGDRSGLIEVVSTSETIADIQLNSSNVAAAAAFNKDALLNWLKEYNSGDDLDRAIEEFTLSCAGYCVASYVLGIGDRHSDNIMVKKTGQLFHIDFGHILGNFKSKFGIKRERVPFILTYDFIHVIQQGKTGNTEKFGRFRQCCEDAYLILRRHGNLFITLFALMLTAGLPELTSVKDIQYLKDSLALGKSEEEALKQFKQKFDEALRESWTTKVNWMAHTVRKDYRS

[4] = AUC in BALB/c mouse plasma at 3 mg/kg, po by LC-MS/MS analysis; assay type: ADME, organism-based
[5] = Cmax in BALB/c mouse plasma at 1 mg/kg, iv followed by po dosing at 3 mg/kg by LC-MS/MS analysis; assay type: ADME, organism-based
[6] = Tmax in BALB/c mouse plasma at 1 mg/kg, iv followed by po dosing at 3 mg/kg by LC-MS/MS analysis; assay type: ADME, organism-based
[7] = Half life in BALB/c mouse plasma at 1 mg/kg, iv followed by po dosing at 3 mg/kg by LC-MS/MS analysis; assay type: ADME, organism-based
[8] = Volume of distribution at steady state in BALB/c mouse plasma at 1 mg/kg, iv followed by po dosing at 3 mg/kg by LC-MS/MS analysis; assay type: ADME, organism-based; settings: read-out: Vdss
[9] = Total clearance in BALB/c mouse plasma at 1 mg/kg, iv followed by po dosing at 3 mg/kg by LC-MS/MS analysis; assay type: ADME, organism-based
[10] = Oral bioavailability in BALB/c mouse plasma at 3 mg/kg by LC-MS/MS analysis; assay type: ADME, organism-based
[11] = target: Phosphatidylinositol 4,5-bisphosphate 3-kinase catalytic subunit gamma isoform (Homo sapiens, UniProt P48736); test: Inhibition of recombinant human full length N-terminal His-tagged PI3Kgamma expressed in Sf9 insect cells using PIP2 as substrate after 35 to 40 mins by HTRF assay
Sequence of Phosphatidylinositol 4,5-bisphosphate 3-kinase catalytic subunit gamma isoform (P48736 whole entry, canonical isoform): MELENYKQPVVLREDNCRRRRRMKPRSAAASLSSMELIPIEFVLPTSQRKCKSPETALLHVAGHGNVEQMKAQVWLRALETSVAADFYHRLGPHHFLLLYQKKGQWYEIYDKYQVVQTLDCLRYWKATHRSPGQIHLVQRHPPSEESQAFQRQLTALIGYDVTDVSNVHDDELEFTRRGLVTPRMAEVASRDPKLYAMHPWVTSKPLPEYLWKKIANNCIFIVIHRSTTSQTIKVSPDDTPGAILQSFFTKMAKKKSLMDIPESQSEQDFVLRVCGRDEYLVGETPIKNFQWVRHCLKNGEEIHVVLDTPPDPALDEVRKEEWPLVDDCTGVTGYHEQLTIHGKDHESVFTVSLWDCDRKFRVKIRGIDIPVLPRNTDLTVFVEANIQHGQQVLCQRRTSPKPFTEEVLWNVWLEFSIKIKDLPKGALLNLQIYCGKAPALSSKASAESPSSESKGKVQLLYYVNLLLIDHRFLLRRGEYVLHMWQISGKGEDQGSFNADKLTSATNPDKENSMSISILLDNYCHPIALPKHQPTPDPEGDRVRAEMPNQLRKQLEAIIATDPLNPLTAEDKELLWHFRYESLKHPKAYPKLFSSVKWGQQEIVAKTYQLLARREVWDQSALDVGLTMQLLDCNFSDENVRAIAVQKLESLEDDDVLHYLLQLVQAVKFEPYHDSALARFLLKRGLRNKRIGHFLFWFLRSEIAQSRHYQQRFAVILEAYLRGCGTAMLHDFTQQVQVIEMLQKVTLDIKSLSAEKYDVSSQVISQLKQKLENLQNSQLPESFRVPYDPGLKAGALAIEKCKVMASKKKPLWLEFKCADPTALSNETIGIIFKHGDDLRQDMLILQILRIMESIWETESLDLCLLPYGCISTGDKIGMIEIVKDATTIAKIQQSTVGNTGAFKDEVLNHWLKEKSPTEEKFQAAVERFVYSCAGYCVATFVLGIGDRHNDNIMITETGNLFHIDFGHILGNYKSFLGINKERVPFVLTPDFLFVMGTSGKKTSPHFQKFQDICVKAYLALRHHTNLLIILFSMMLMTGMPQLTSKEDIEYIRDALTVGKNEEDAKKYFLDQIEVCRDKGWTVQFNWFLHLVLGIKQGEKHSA

[12] = target: PI3-kinase p110-alpha/p85-alpha (Homo sapiens, UniProt P42336); test: Inhibition of recombinant human N-terminal His6-tagged full length PI3K p110alpha/untagged recombinant full length human p85alpha expressed in baculovirus infected Sf21 insect cells using phosphatidylinositol as substrate after 3 hrs by kinase glo reagent based luminescence assay
Sequence of PI3-kinase p110-alpha/p85-alpha (P27986 whole entry): as the sequence (P27986 whole entry) above
Sequence of PI3-kinase p110-alpha/p85-alpha (P42336 whole entry): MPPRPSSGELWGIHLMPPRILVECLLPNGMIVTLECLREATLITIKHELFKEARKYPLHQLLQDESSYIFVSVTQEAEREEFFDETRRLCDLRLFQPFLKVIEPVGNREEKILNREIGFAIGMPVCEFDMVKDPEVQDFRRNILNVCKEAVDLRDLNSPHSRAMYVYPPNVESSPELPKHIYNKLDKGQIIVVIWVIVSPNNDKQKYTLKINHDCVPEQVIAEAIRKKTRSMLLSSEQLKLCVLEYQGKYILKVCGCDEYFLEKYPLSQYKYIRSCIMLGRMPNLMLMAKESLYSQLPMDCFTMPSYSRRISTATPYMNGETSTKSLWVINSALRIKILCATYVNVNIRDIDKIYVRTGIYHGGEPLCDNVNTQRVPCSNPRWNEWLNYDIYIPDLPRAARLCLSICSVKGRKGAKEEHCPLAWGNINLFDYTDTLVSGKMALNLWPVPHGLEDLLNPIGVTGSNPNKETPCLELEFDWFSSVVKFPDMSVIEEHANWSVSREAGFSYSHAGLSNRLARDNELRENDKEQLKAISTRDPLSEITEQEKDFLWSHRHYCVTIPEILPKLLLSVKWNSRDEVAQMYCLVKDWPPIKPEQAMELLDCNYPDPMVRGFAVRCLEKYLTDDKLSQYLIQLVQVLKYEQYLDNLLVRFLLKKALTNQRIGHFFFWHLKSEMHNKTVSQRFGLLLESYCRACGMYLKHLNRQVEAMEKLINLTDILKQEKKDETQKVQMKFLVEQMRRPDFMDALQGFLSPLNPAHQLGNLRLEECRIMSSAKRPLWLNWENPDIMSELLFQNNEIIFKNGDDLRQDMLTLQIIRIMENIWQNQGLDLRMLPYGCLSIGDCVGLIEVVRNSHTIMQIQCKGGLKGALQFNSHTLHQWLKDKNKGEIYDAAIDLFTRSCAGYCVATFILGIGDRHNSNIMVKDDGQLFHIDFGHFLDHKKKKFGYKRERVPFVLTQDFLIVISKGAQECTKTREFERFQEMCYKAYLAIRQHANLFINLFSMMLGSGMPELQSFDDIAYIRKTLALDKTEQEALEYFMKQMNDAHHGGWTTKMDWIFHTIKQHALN

Structure (SMILES): COc1ncc(-c2cc(O[C@@H]3CCN(S(=O)(=O)C4CCOCC4)C3)c3cnn(C)c3n2)cc1NS(C)(=O)=O
Ratio IC50 (Homo sapiens): 2 | IC50 [3]: 38 nM

Structure (SMILES): COc1ncc(-c2cc(N[C@@H]3CCN(C(=O)C4CCOCC4)C3)c3cnn(C)c3n2)cc1NS(C)(=O)=O
Ratio IC50 (Homo sapiens): 3.2 | IC50 [3]: 110 nM

Structure (SMILES): COc1ncc(-c2cc(O[C@@H]3CCN(C(=O)C4(C)CCOCC4)C3)c3cnn(C)c3n2)cc1NS(C)(=O)=O
IC50 [3]: 18 nM

Structure (SMILES): COc1ncc(-c2cc(O[C@@H]3CCN(C4CCOCC4)C3)c3cnn(C)c3n2)cc1NS(C)(=O)=O
Ratio IC50 (Homo sapiens): 21 | IC50 [3]: 52 nM

Structure (SMILES): COc1ncc(-c2cc(N(C)[C@@H]3CCN(C(=O)C4CCOCC4)C3)c3cnn(C)c3n2)cc1NS(C)(=O)=O
IC50 [3]: 230 nM

Structure (SMILES): COc1ncc(-c2cc(O[C@@H]3CCN(CC4CCOCC4)C3)c3cnn(C)c3n2)cc1NS(C)(=O)=O
Ratio IC50 (Homo sapiens): 29 | IC50 [3]: 18 nM

Structure (SMILES): COc1ncc(-c2cc(O[C@@H]3CCN(C(=O)CC4CCOCC4)C3)c3cnn(C)c3n2)cc1NS(C)(=O)=O
Ratio IC50 (Homo sapiens): 17 | IC50 [3]: 36 nM

Structure (SMILES): COc1ncc(-c2cc(O[C@@H]3CCN(C(=O)c4ccccc4)C3)c3cnn(C)c3n2)cc1NS(C)(=O)=O
Ratio IC50 (Homo sapiens): 5.3 | IC50 [3]: 16 nM

Structure (SMILES): COc1ncc(-c2cc(O[C@H]3CCN(C(=O)C4CCOCC4)C3)c3cnn(C)c3n2)cc1NS(C)(=O)=O
Ratio IC50 (Homo sapiens): 13 | IC50 [3]: 53 nM

Now those with a lower IC50 [3], led by results:

remaining at 16 h, 2 µM [1]: 92.3% | remaining at 16 h, 2 µM [2]: 17.6% | IC50 [3]: 3.3 nM
Structure (SMILES): COc1ncc(-c2cc(NC(=O)c3coc(CN4CCN(CCN5CCOCC5)CC4)n3)c3cnn(C)c3n2)cc1NS(C)(=O)=O
Ratio IC50 (Homo sapiens): 250

IC50 (PI3K p110 beta/p85 alpha): 520 nM | AUC [4]: 346 ng·h/mL | Cmax [5]: 298 ng/mL | Tmax [6]: 15 min | half-life [7]: 84.6 min | Vd [8]: 2.82 L/kg | clearance [9]: 68.3 mL/min/kg | IC50 [3]: 4.5 nM | bioavailability [10]: 49% | IC50 [11]: > 10000 nM
Structure (SMILES): COc1ncc(-c2cc(O[C@@H]3CCN(Cc4c(C)nn(C)c4C)C3)c3cnn(C)c3n2)cc1NS(C)(=O)=O
Ratio IC50 (Homo sapiens): 320

AUC [4]: 45.6 ng·h/mL | Cmax [5]: 19.9 ng/mL | Tmax [6]: 120 min | half-life [7]: 22 min | Vd [8]: 4.03 L/kg | clearance [9]: 170 mL/min/kg | remaining at 16 h, 2 µM [1]: 79.7% | remaining at 16 h, 2 µM [2]: 0.4% | IC50 [3]: 8.4 nM | IC50 [12]: 330 nM | bioavailability [10]: 16%
Structure (SMILES): COc1ncc(-c2cc(NC(=O)c3coc(CN4CCN(C(C)C)CC4)n3)c3cnn(C)c3n2)cc1NS(C)(=O)=O
Ratio IC50 (Homo sapiens): 40

remaining at 16 h, 2 µM [1]: 90.3% | remaining at 16 h, 2 µM [2]: 0.5% | IC50 [3]: 0.75 nM
Structure (SMILES): COc1ncc(-c2cc(NC(=O)c3coc(CN4CCN(Cc5cccnc5)CC4)n3)c3cnn(C)c3n2)cc1NS(C)(=O)=O
Ratio IC50 (Homo sapiens): 290

IC50 [3]: 8.2 nM
Structure (SMILES): COc1ncc(-c2cc(O[C@@H]3CCN(Cc4cnn(C)c4)C3)c3cnn(C)c3n2)cc1NS(C)(=O)=O
Ratio IC50 (Homo sapiens): 71

AUC [4]: 1640 ng·h/mL | Cmax [5]: 861 ng/mL | Tmax [6]: 15 min | half-life [7]: 151 min | Vd [8]: 2.37 L/kg | clearance [9]: 24.5 mL/min/kg | remaining at 16 h, 2 µM [2]: 109% | IC50 [3]: 5.3 nM | bioavailability [10]: 71.1%
Structure (SMILES): COc1ncc(-c2cc(O[C@@H]3CCN(C(=O)C4CCOCC4)C3)c3cnn(C)c3n2)cc1NS(C)(=O)=O
Ratio IC50 (Homo sapiens): 92

IC50 [3]: 4.5 nM
Structure (SMILES): COc1ncc(-c2cc(O[C@@H]3CCN(Cc4ccccc4)C3)c3cnn(C)c3n2)cc1NS(C)(=O)=O
Ratio IC50 (Homo sapiens): 160

— ChEMBL document CHEMBL4219210, “Discovery and biological evaluation of novel pyrazolopyridine derivatives as potent and orally available PI3Kδ inhibitors” (Bioorg Med Chem, 2018)
